pEC50: −log10 of the molar value. Where two headings read alike, the source gives them in different places.

Experiment [1] addresses T1, glutathione-S-transferase (GST) tagged LXRalpha LBD (ligand binding domain) (Homo sapiens, UniProt Q13133).
T1 construct: purchased Invitrogen pv4655
T1 sequence (Q13133 209-447 limits assumed): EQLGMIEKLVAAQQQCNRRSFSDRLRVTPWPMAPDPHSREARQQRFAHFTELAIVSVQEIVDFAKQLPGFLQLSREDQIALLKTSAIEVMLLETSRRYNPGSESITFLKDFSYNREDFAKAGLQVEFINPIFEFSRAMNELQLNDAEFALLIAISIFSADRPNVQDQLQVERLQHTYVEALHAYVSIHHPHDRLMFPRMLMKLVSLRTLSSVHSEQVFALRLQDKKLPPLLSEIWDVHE
Put plainly: LanthaScreen TR-FRET Liver X Receptor Coactivator Assay, co-activator recruitment to LXRalpha LBD. Type of experiment: biochemical. Particulars: for Emax: read-out: LXR alpha Activity @ max dose (%); for pEC50: read-out: LXR alpha IP. Put shortly: (§1)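 GST-tagged LBD added to test compound, then fluorescein-labelled coactivator peptide plus terbium anti-GST antibody; incubated at room temperature, TR-FRET read. Potency given as inflection point and efficacy as Emax relative to reference dual agonist T0901317.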

For experiment [2], the target named is T2, glutathione-S-transferase (GST) tagged LXRbeta LBD (ligand binding domain) (Homo sapiens, UniProt P55055).
T2 construct: purchased Invitrogen pv4658.pps
T2 sequence (P55055 222-460 limits assumed): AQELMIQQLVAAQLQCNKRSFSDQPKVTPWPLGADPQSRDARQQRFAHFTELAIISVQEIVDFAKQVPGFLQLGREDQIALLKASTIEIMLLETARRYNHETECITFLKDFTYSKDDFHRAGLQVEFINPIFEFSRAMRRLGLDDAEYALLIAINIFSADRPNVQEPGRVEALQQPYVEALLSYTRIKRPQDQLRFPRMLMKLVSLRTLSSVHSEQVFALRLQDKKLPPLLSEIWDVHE
Put plainly: LanthaScreen TR-FRET Liver X Receptor Coactivator Assay, co-activator recruitment to LXRbeta LBD. Type of experiment: biochemical. Particulars: for Emax: read-out: LXR beta Activity @ max dose (%); for pEC50: read-out: LXR beta IP. Put shortly: as §1

Setting [3] is: efficacy at max dose, in relation to reference dual agonist T0901317.
Where [4] appears, read: potency (Inflection Point, IP), co-activator recruitment to LXRalpha LBD, in relation to T0901317.
Setting [5] is: potency (Inflection Point, IP), co-activator recruitment to LXRbeta LBD, in relation to T0901317.

`CNC(=O)c1ccc(N2CCC(CC3CCN(C(=O)[C@](O)(c4cc(F)cc(OC)c4)C(F)(F)F)CC3)CC2)nc1Cl` [Example 7-132, 2-chloro-N-methyl-6-[4-({1-[(2R)-3,3,3-trifluoro-2-(3-fluoro-5-methoxyphenyl)-2-hydroxypropanoyl]piperidin-4-yl}methyl)piperidin-1-yl] pyridine-3-carboxamide]: the Emax in experiment [1] (setting [3]) worked out at 22%; in experiment [2] (setting [3]) it was 124%. The pEC50 in experiment [1] (setting [4]) is 7.12; in experiment [2] (setting [5]), 8.30.
With `COc1cccc([C@@](O)(C(=O)N2CCC(CC3CCN(c4ccc(C(=O)N(C)C)c(Cl)c4)CC3)CC2)C(F)(F)F)c1` (single isomer, unassigned) [Example 2-34], the Emax in experiment [1] (setting [3]) turned out to be 1%; in experiment [2] (setting [3]) it was 69%. Also, in experiment [1] (setting [4]), the “LXR alpha IP (nM)” value was “NO IP”. Besides, the pEC50 in experiment [2] (setting [5]) was 6.31.
As to `COc1cccc([C@@](O)(C(=O)N2CC(CC3CCN(c4ccc(C(=O)N(C)C)c(C)n4)CC3)C2)C(F)(F)F)c1` [Example 7-10, N,N,2-trimethyl-6-[4-({1-[(2R)-3,3,3-trifluoro-2-hydroxy-2-(3-methoxyphenyl)propanoyl]azetidin-3-yl}methyl)piperidin-1-yl]pyridine-3-carboxamide], the Emax in experiment [1] (setting [3]) is 28%; in experiment [2] (setting [3]) it was 77%. Moreover, the pEC50 in experiment [1] (setting [4]) is 7.70; in experiment [2] (setting [5]) it was 6.87.
`CN(C)C(=O)c1ccc(N2CCC(CC3CN(C(=O)C(O)(c4cccc(C(F)(F)F)c4)C(F)(F)F)C3)CC2)cc1Cl` (centres unmarked) [Example 2-66, 2-chloro-N,N-dimethyl-4-{4-[(1-{3,3,3-trifluoro-2-hydroxy-2-[3-(trifluoromethyl)phenyl]propanoyl}azetidin-3-yl)methyl]piperidin-1-yl}benzamide]: the Emax in experiment [1] (setting [3]) amounted to 14%; in experiment [2] (setting [3]), 69%. Further, the “LXR alpha IP (nM)” value in experiment [1] (setting [4]) is reported as “NO IP”. Further, in experiment [2] (setting [5]), the pEC50 was 7.30.
On to `COc1cccc([C@@](O)(C(=O)N2CCC(CC3CCN(c4ccc(C(=O)N(C)C)cc4)CC3)CC2)C(F)(F)F)c1` [Example 2-124, N,N-dimethyl-4-[4-({1-[(2R)-3,3,3-trifluoro-2-hydroxy-2-(3-methoxy-phenyl)propanoyl]piperidin-4-yl}methyl)piperidin-1-yl]benzamide], for which the results for the Emax in experiment [1] (setting [3]) and in experiment [2] (setting [3]) were 4% and 55%, respectively. In addition, the “LXR alpha IP (nM)” value in experiment [1] (setting [4]) is “NO IP”. The pEC50 in experiment [2] (setting [5]) is 7.37.
On to `CN(C)C(=O)c1ccc(N2CCC(CC3CCN(C(=O)C(O)(c4ccccc4)C4CC4)CC3)CC2)nc1Cl` (centres unmarked) [Example 7-99, 2-chloro-6-[4-({1-[cyclopropyl(hydroxy)phenylacetyl]piperidin-4-yl}methyl)piperidin-1-yl]-N,N-dimethylpyridine-3-carboxamide], for which the 50% effective concentration (EC50) in experiment [1] (LXR alpha IP (nM), potency (Inflection Point, IP), co-activator recruitment to LXRalpha LBD, in relation to T0901317) was found to be 2790 nM; in experiment [2] (LXR beta IP (nM), potency (Inflection Point, IP), co-activator recruitment to LXRbeta LBD, in relation to T0901317), 48 nM. The Emax in experiment [1] turned out to be 20%; in experiment [2], 74%.
Take `CN(C)C(=O)c1ccc(N2CCC(CC3CCN(C(=O)[C@](O)(c4cc(Cl)cc(Cl)c4)C(F)(F)F)CC3)CC2)cc1Cl` [Example 2-93, 2-chloro-4-[4-({1-[(2R)-2-(3,5-dichloro-phenyl)-3,3,3-trifluoro-2-hydroxy-propanoyl]piperidin-4-yl}methyl)piperidin-1-yl]-N,N-dimethyl-benzamide]: the Emax in experiment [1] (setting [3]) worked out at 7%; in experiment [2] (setting [3]) it was 59%. Moreover, in experiment [1] (setting [4]), the “LXR alpha IP (nM)” value was “NO IP”. The pEC50 in experiment [2] (setting [5]) is 8.30.
As to `CNC(=O)c1ccc(N2CCC(CC3CCN(C(=O)[C@](O)(c4cccc(OC)c4)C(F)(F)C(F)(F)F)CC3)CC2)nc1Cl` [Example 7-138, 2-chloro-N-methyl-6-[4-({1-[(2R)-3,3,4,4,4-pentafluoro-2-hydroxy-2-(3-methoxyphenyl)butanoyl]piperidin-4-yl}methyl)piperidin-1-yl]pyridine-3-carboxamide], the Emax in experiment [1] (setting [3]) amounted to 39%; in experiment [2] (setting [3]), 102%. In addition, the figures for the pEC50 in experiment [1] (setting [4]) and in experiment [2] (setting [5]) were 6.37 and 7.52, respectively.
Take `Cc1cc(N2CCC(CC3CCN(C(=O)C(O)(c4cccc(Cl)c4)C(F)(F)F)CC3)CC2)ncc1C(=O)N(C)C` (centres unmarked) [Example 7-4, 6-[4-({1-[2-(3-chlorophenyl)-3,3,3-trifluoro-2-hydroxypropanoyl]piperidin-4-yl}methyl)piperidin-1-yl]-N,N,4-trimethylpyridine-3-carboxamide]: the results for the pEC50 in experiment [1] (setting [4]) and in experiment [2] (setting [5]) were 5.88 and 7.28, respectively. Also, the Emax in experiment [1] amounted to 19%; in experiment [2], 63%.
As for `CN(C)C(=O)c1ccc(N2CCC(OC3CCN(C(=O)C(O)(c4ccc(Cl)cc4)C(F)(F)F)CC3)CC2)cc1Cl` (centres unmarked) [Example 2-23, 2-chloro-4-[4-({1-[2-(4-chlorophenyl)-3,3,3-trifluoro-2-hydroxy-propanoyl]piperidin-4-yl}oxy)piperidin-1-yl]-N,N-dimethyl-benzamide], the figures for the Emax in experiment [1] (setting [3]) and in experiment [2] (setting [3]) were 0% and 51%, respectively. Also, the “LXR alpha IP (nM)” value in experiment [1] (setting [4]) is given as “NO IP”. In addition, the pEC50 in experiment [2] (setting [5]) was 6.29.
Take `CN(C)C(=O)c1ccc(N2CCC(CC3CCN(C(=O)[C@](O)(c4cccc(OC(F)F)c4)C(F)(F)F)CC3)CC2)cc1` [Example 2-134, 4-{4-[(1-{(2R)-2-[3-(difluoro-methoxy)phenyl]-3,3,3-trifluoro-2-hydroxy-propanoyl}piperidin-4-yl)methyl]piperidin-1-yl}-N,N-dimethyl-benzamide]: the Emax in experiment [1] (setting [3]) is 18%; in experiment [2] (setting [3]), 67%. Besides, the pEC50 in experiment [1] (setting [4]) is 5.70; in experiment [2] (setting [5]) it was 6.92.
The corresponding values for `NC(=O)c1ccc(N2CCC(CC3CCN(C(=O)[C@](O)(c4ccccc4)C(F)(F)F)CC3)CC2)cc1Cl` [Example 12-2, 2-chloro-4-[4-({1-[(2R)-3,3,3-trifluoro-2-hydroxy-2-phenyl-propanoyl]piperidin-4-yl}methyl)piperidin-1-yl]benzamide] are 52%, 74%, 7.24 and 8.05.
Taken in the same sequence, the figures for `CN(C)C(=O)c1ccc(N2CCC(CC3CCN(C(=O)[C@](O)(c4cccc(Br)c4)C(F)(F)F)CC3)CC2)nc1Cl` [Example 7-67, 6-[4-({1-[(2R)-2-(3-bromophenyl)-3,3,3-trifluoro-2-hydroxypropanoyl]piperidin-4-yl}methyl)piperidin-1-yl]-2-chloro-N,N-dimethylpyridine-3-carboxamide] were 0%, 73%, 6.96 and 8.40.
For the compound `CCOc1cccc([C@@](O)(C(=O)N2CC(CC3CCN(c4ccc(C(=O)NC)c(Cl)c4)CC3)C2)C(F)(F)F)c1` [Example 7-39, 2-chloro-4-[4-({1-[(2R)-2-(3-ethoxyphenyl)-3,3,3-trifluoro-2-hydroxypropanoyl]azetidin-3-yl}methyl)piperidin-1-yl]-N-methylbenzamide], the values for the Emax in experiment [1] (setting [3]) and in experiment [2] (setting [3]) were 0% and 59%, respectively. Moreover, in experiment [1] (setting [4]), the “LXR alpha IP (nM)” value is on record as “NO IP”. Further, the pEC50 in experiment [2] (setting [5]) was 7.04.
For `CN(C)C(=O)c1ccc(N2CCC(CC3CCN(C(=O)[C@](O)(c4ccccc4F)C(F)(F)F)CC3)CC2)cc1Cl` [Example 2-85, 2-chloro-N,N-dimethyl-4-[4-({1-[(2R)-3,3,3-trifluoro-2-(2-fluorophenyl)-2-hydroxy-propanoyl]piperidin-4-yl}methyl)piperidin-1-yl]benzamide], the Emax in experiment [1] (setting [3]) is 21%; in experiment [2] (setting [3]) it was 68%. Further, the results for the pEC50 in experiment [1] (setting [4]) and in experiment [2] (setting [5]) were 6.26 and 7.77, respectively.
Take `CC[C@](O)(C(=O)N1CCC(CC2CCN(c3ccc(C(=O)N(C)C)c(Cl)c3)CC2)CC1)c1ccccc1` [Example 2-110, 2-chloro-4-[4-({1-[(2R)-2-hydroxy-2-phenylbutanoyl]piperidin-4-yl}methyl)piperidin-1-yl]-N,N-dimethyl-benzamide]: the Emax stood at 17% in experiment [1] (setting [3]) and 50% in experiment [2] (setting [3]). For the same compound, the “LXR alpha IP (nM)” value in experiment [1] (setting [4]) is “NO IP”. Further, the pEC50 in experiment [2] (setting [5]) is 7.27.
Turning to `CC(C)Oc1cccc([C@@](O)(C(=O)N2CCC(C)(CC3CCN(c4ccc(C(=O)N(C)C)c(Cl)n4)CC3)CC2)C(F)(F)F)c1` [Example 7-48, 2-chloro-N,N-dimethyl-6-{4-[(4-methyl-1-{(2R)-3,3,3-trifluoro-2-hydroxy-2-[3-(1-methylethoxy)phenyl]propanoyl}piperidin-4-yl)methyl]piperidin-1-yl}pyridine-3-carboxamide], the Emax in experiment [1] (setting [3]) was determined as 16%; in experiment [2] (setting [3]) it was 64%. In experiment [1] (setting [4]), the “LXR alpha IP (nM)” value is recorded as “NO IP”. Also, in experiment [2] (setting [5]), the pEC50 is 8.00.

The record behind these values is patent publication US10752587B2, “Homobispiperidinyl derivatives as liver X receptor beta agonists, compositions and their use” (Merck Sharp & Dohme Corp., priority 2015, dated 2020).
